The target of assay [1] is Aldo-keto reductase family 1 member B1 (Rattus norvegicus, UniProt P07943). Put plainly: Inhibition of Rattus norvegicus (rat) lens aldose reductase.
Assay [2] has as its target Aldo-keto reductase family 1 member B1 (Homo sapiens, UniProt P15121). Briefly: Inhibition of Homo sapiens (human) aldose reductase.

The source of these data is ChEMBL document CHEMBL3046187, “Challenges in docking 2-hydroxy and 2,4-dihydroxychalcones into the binding site of ALR2” (Med Chem Res, 2013).

Take `O=C(/C=C/c1ccc(O)c(O)c1)c1cc(Cl)ccc1O`: 550 nM corresponded to half-maximal inhibition in assay [1] (IC50).

`O=C(/C=C/c1cc(O)ccc1O)c1ccc(O)cc1O` gave an IC50 in assay [1] of 580 nM.

For the molecule `Cc1cccc(/C=C/C(=O)c2cc(Cl)ccc2O)c1`, in assay [1], it took 10200 nM to reach half-maximal inhibition (IC50).

In assay [1], `O=C(/C=C/c1ccc(O)c(O)c1O)c1cc(Cl)ccc1O` returned an IC50 of 2230 nM.

In the case of `COc1ccc(/C=C/C(=O)c2cc(Cl)ccc2O)c(OC)c1OC`, half-maximal inhibition in assay [1] (IC50) required 8200 nM.

In turn, `Cc1ccc(O)c(C(=O)/C=C/c2ccc(O)cc2)c1` gave an IC50 in assay [1] of 4380 nM.

Molecule `O=C(/C=C/c1ccc(O)cc1)c1cc(Br)ccc1O` registered an IC50 in assay [1] of 2150 nM.

For `Cc1ccc(C(=O)c2ccc(CC(=O)O)n2C)cc1` [TOLMETIN], the concentration for half-maximal inhibition (IC50) in assay [2] was found to be 2390 nM.

In assay [1], `O=C(/C=C/c1ccc(O)cc1)c1ccc(O)cc1O` [ISOLIQUIRITIGENIN] registered a half-maximal inhibitory concentration (IC50) of 400 nM.

Regarding `O=C(/C=C/c1ccc(Br)cc1)c1ccc(O)cc1O`, the IC50 in assay [1] came to 1120 nM.

In assay [1], `COc1cccc(O)c1C(=O)/C=C/c1ccc(O)cc1` returned a half-maximal inhibitory concentration (IC50) of 3270 nM.

`Cc1ccc(/C=C/C(=O)c2cc(Cl)ccc2O)cc1` gave an IC50 in assay [1] of 9800 nM.

`O=C(/C=C/c1ccccc1)c1cc(Cl)ccc1O` came in with an IC50 in assay [1] of 11500 nM.

On to `O=C(/C=C/c1ccc(O)cc1)c1cc(Cl)ccc1O`, for which the half-inhibitory concentration (IC50) in assay [1] was 1010 nM.

In assay [1], `COc1ccc(/C=C/C(=O)c2cc(Cl)ccc2O)cc1OC` had an IC50 of 11800 nM.

`O=C(/C=C/c1ccc(O)cc1O)c1ccc(O)cc1O` gave a 50% inhibitory concentration (IC50) in assay [1] of 160 nM.

On to `O=C(/C=C/c1ccc(Cl)c(Cl)c1)c1ccc(O)cc1O`, for which half-maximal inhibition in assay [1] (IC50) required 1210 nM.

In assay [1], `O=C(/C=C/c1ccc(Cl)cc1)c1cc(Cl)ccc1O` showed an IC50 of 13700 nM.

In assay [1], `O=C(/C=C/c1ccc(O)c(O)c1)c1ccc(O)cc1O` [BUTEIN] showed an IC50 of 450 nM.

Molecule `CC1=C(CC(=O)O)c2cc(F)ccc2/C1=C\c1ccc([S+](C)[O-])cc1` (stereo not given) [SULINDAC] showed an IC50 in assay [2] of 374 nM.

The molecule `Cc1ccc(/C=C/C(=O)c2ccc(O)cc2O)c(C)c1` yielded an IC50 in assay [1] of 400 nM.

Consider `COc1ccc(/C=C/C(=O)c2ccc(O)cc2O)cc1OC`, for which, in assay [1], the midpoint of inhibition, the IC50, lay at 1050 nM.

In turn, `Cc1ccc(/C=C/C(=O)c2cc(Cl)ccc2O)c(C)c1` registered an IC50 in assay [1] of 7800 nM.

Turning to `COc1ccc(O)c(C(=O)/C=C/c2ccc(O)cc2)c1`, in assay [1], half-maximal inhibition (IC50) required 3180 nM.

`COc1ccc(/C=C/C(=O)c2ccc(O)cc2O)cc1` had an IC50 in assay [1] of 930 nM.

Molecule `COc1ccc(/C=C/C(=O)c2cc(Cl)ccc2O)cc1` gave a concentration for half-maximal inhibition (IC50) in assay [1] of 14800 nM.

In assay [1], `COc1ccc(/C=C/C(=O)c2cc(Cl)ccc2O)cc1F` displayed an IC50 of 10900 nM.

In assay [1], `O=C(/C=C/c1ccc(O)cc1)c1cc(O)ccc1O` displayed an IC50 of 5390 nM.

As to `O=C(/C=C/c1ccc([N+](=O)[O-])cc1)c1ccc(O)cc1O`, it took 3210 nM to reach half-maximal inhibition in assay [1] (IC50).

Take `O=C(/C=C/c1ccc(O)cc1)c1ccccc1O`: the IC50 in assay [1] was found to be 4250 nM.

In assay [1], `O=C(/C=C/c1ccccc1O)c1ccc(O)cc1O` displayed an IC50 of 380 nM.

`COc1ccc(/C=C/C(=O)c2ccc(O)cc2O)cc1F` yielded an IC50 in assay [1] of 910 nM.

In the case of `O=C(/C=C/c1ccccc1)c1ccc(O)cc1O` [2',4'-DIHYDROXYCHALCONE], inhibition in assay [1] was half-maximal at 1010 nM (IC50).

Molecule `O=C(/C=C/c1ccc(O)c(O)c1O)c1ccc(O)cc1O` yielded an IC50 in assay [1] of 750 nM.

For the molecule `O=C(/C=C/c1cccc(O)c1)c1cc(Cl)ccc1O`, in assay [1], the IC50 was determined as 10500 nM.

In turn, `O=C(/C=C/c1ccc(O)cc1O)c1cc(Cl)ccc1O` displayed an IC50 in assay [1] of 850 nM.

As for `COc1ccc(C(=O)/C=C/c2ccc(O)cc2)c(O)c1`, in assay [1], inhibition was half-maximal at 5240 nM (IC50).

Turning to `O=C(/C=C/c1ccccc1O)c1cc(Cl)ccc1O`, in assay [1], the 50% inhibitory concentration (IC50) is 1250 nM.

In assay [1], `CN(C)c1ccc(/C=C/C(=O)c2ccc(O)cc2O)cc1` came in with a 50% inhibitory concentration (IC50) of 1150 nM.

In the case of `Cc1ccc(/C=C/C(=O)c2ccc(O)cc2O)cc1`, in assay [1], the IC50 amounted to 810 nM.
